{"source": "patent US20240368676A1", "about": "“KITS FOR DETECTING ONE OR MORE TARGET ANALYTES IN A SAMPLE AND METHODS OF MAKING AND USING THE SAME” (Meso Scale Technologies, LLC., priority 2020, published 2024)", "key": {"[1]": {"system": "rs1801270 (CDKN1A c.93C>A)", "test": "Lung cancer SNP panel OLA on PCR-amplified cell line DNA", "settings": "PCR-amplified DNA from HIL-60 cell line", "description": "(§1) The probe sequences used for each mutation are provided in Tables 42 (upstream) and 43 (downstream), below.\n(§2) To test the probes for each mutation, probes from either the 1st or 2nd strand were chosen and tested against DNA extracted from a HIL-60 cell line. DNA was extracted using the Gentra Puregene Cell Kit (Qiagen Cat #158388) and 10 ng DNA was amplified using the MyTaq HS Master Mix (Bioline Cat #BIO-25045) and assay-specific PCR forward and revers primers, shown in Tables 44 and 45, respectively.\n(§3) Following amplification, OLA was performed as described in Example 7 and the frequency of WT and Mutant alleles was determined."}, "[2]": {"system": "rs8034191 (LOC123688 or HYKK c.337+256T>C)", "test": "Lung cancer SNP panel OLA on PCR-amplified cell line DNA", "settings": "PCR-amplified DNA from HIL-60 cell line", "description": "as §1, §2, §3"}, "[3]": {"system": "rs17879961 (CHEK2 c.599T>C)", "test": "Lung cancer SNP panel OLA on PCR-amplified cell line DNA", "settings": "PCR-amplified DNA from HIL-60 cell line", "description": "as §1, §2, §3"}, "rs1801133 (MTHFR C677T)": {"system": "rs1801133 (MTHFR C677T)", "test": "Lung cancer SNP panel OLA on PCR-amplified cell line DNA", "settings": "PCR-amplified DNA from HIL-60 cell line", "description": "as §1, §2, §3"}, "rs2273535 (AURKA F31J)": {"system": "rs2273535 (AURKA F31J)", "test": "Lung cancer SNP panel OLA on PCR-amplified cell line DNA", "settings": "PCR-amplified DNA from HIL-60 cell line", "description": "as §1, §2, §3"}, "rs3842 (ABCB1 c.*193A>G)": {"system": "rs3842 (ABCB1 c.*193A>G)", "test": "Lung cancer SNP panel OLA on PCR-amplified cell line DNA", "settings": "PCR-amplified DNA from HIL-60 cell line", "description": "as §1, §2, §3"}, "[4]": {"system": "spot with the capture oligonucleotide with SEQ ID NO: 5", "test": "Comparison of blocking conditions for preparing arrays (cross-reactivity from cross-contamination)", "type": "binding", "method": "Blocking conditions for removing excess capture oligonucleotides from arrays were compared. Plates with printed arrays were prepared as described in Example 2 and blocked and washed as described in Example 4, except for varying the composition of the blocking solution. Specificity of the arrays was then characterized as described in Example 4."}, "[5]": {"system": "rs212090 (ABCC1 c.*866T>A)", "test": "Lung cancer SNP panel OLA on PCR-amplified cell line DNA", "settings": "PCR-amplified DNA from HIL-60 cell line", "description": "as §1, §2, §3"}, "miR-122 [6]": {"system": "miR-122", "test": "miRNA detection using an RNase protection assay (chimeric DNA/RNA probe, ECL)", "settings": "synthetic miR-122 miRNA", "excerpt": "An RNase protection assay can be used for miRNA quantification. In the assay, a DNA/RNA chimeric probe is used that contains an oligonucleotide tag sequence that is complementary a capture oligonucleotide sequence and a miRNA complementary sequence. The oligonucleotide tag sequence can be a single stranded DNA (ssDNA) sequence included on the 5′ end of the chimeric probe and the miRNA complementary sequence can be a single stranded RNA (ssRNA) sequence at the 3′ end of the chimeric probe, along with a terminal 3′ biotin.\nBriefly, miRNA can be detected as follows: • 1). Hybridize miRNA to the chimeric probe in a thermal cycler to form a hybridization product; • 2). Block assay plate using one or more known blocking agent; • 3). Add hybridization product with formamide to the blocked assay plate under conditions in which the oligonucleotide tag sequence of the hybridization product can hybridize to the capture oligonucleotides on the assay plate. Incubate at 37° C.; • 4). Perform on-plate digestion of ssRNA with RNase A or RNase I (30° C.-37° C.) to digest the following: • a). ssRNA that has not been hybridized to the probe; • b). Probe hybridized to the plate without the complementary miRNA; and • c). […] Add Read Buffer B to assay plate and measure ECL signal generation with MSD Imager; and • 7). Compare the results against a calibration curve for quantification. […]"}, "miR-122 [7]": {"system": "miR-122", "settings": "reported by Rissin et al., PLOS One (2017); cited from earlier work"}, "rs1051730 (CHRNA3 D398N)": {"system": "rs1051730 (CHRNA3 D398N)", "test": "Lung cancer SNP panel OLA on PCR-amplified cell line DNA", "settings": "PCR-amplified DNA from HIL-60 cell line", "description": "as §1, §2, §3"}}, "note": "Where two headings read alike, the source gives them in different places."}
{"compound": "CDKN1A rs1801270 (DNA TCGAAGTTCCATCGCTCAC; listed as DNA, chemistry not given here)", "values": [{"measurement": "% Mutant", "setting": "[1]", "result": 0.1, "unit": "%"}, {"measurement": "% Wild-type", "setting": "[1]", "result": 99.9, "unit": "%"}, {"measurement": "Genotype", "setting": "[1]", "result": "Homozygous (WT) (Measured mutation percentages <20% were classified as homozygous wildtype samples)"}]}
{"compound": "LOC123688 rs8034191 (DNA CCCTGATTTCCACAAGTCC; listed as DNA, chemistry not given here)", "values": [{"measurement": "% Mutant", "setting": "[2]", "result": 1.0, "unit": "%"}, {"measurement": "% Wild-type", "setting": "[2]", "result": 99.0, "unit": "%"}, {"measurement": "Genotype", "setting": "[2]", "result": "Homozygous (WT) (Measured mutation percentages <20% were classified as homozygous wildtype samples)"}]}
{"compound": "CHEK2 rs17879961 (DNA TCCATTGCCACTGTGATCTTC; listed as DNA, chemistry not given here)", "values": [{"measurement": "% Mutant", "setting": "[3]", "result": 0.8, "unit": "%"}, {"measurement": "% Wild-type", "setting": "[3]", "result": 99.2, "unit": "%"}, {"measurement": "Genotype", "setting": "[3]", "result": "Homozygous (WT) (Measured mutation percentages <20% were classified as homozygous wildtype samples)"}]}
{"compound": "MTHFR rs180113 (DNA CTTCACAAAGCGGAAGAATGTG; listed as DNA, chemistry not given here)", "values": [{"measurement": "% Mutant", "setting": "rs1801133 (MTHFR C677T)", "result": 42.8, "unit": "%"}, {"measurement": "% Wild-type", "setting": "rs1801133 (MTHFR C677T)", "result": 57.2, "unit": "%"}, {"measurement": "Genotype", "setting": "rs1801133 (MTHFR C677T)", "result": "Heterozygous (mutation percentages between 30% and 70% were classified as heterozygous (50% mutation))"}]}
{"compound": "AURKA rs2273535 (DNA CTTCCATTCTAGGCTACAGCTC; listed as DNA, chemistry not given here)", "values": [{"measurement": "% Mutant", "setting": "rs2273535 (AURKA F31J)", "result": 0.5, "unit": "%"}, {"measurement": "% Wild-type", "setting": "rs2273535 (AURKA F31J)", "result": 99.5, "unit": "%"}, {"measurement": "Genotype", "setting": "rs2273535 (AURKA F31J)", "result": "Homozygous (WT) (Measured mutation percentages <20% were classified as homozygous wildtype samples)"}]}
{"compound": "ABCB1 rs3842 (DNA AGCAAGGCAGTCAGTTACAG; listed as DNA, chemistry not given here)", "values": [{"measurement": "% Mutant", "setting": "rs3842 (ABCB1 c.*193A>G)", "result": 52.4, "unit": "%"}, {"measurement": "% Wild-type", "setting": "rs3842 (ABCB1 c.*193A>G)", "result": 47.6, "unit": "%"}, {"measurement": "Genotype", "setting": "rs3842 (ABCB1 c.*193A>G)", "result": "Heterozygous (mutation percentages between 30% and 70% were classified as heterozygous (50% mutation))"}]}
{"compound": "N[C@@H](CS)C(=O)O", "note": "[cysteine]", "values": [{"measurement": "cross-reactivity", "setting": "[4]; cysteine added to the Tris/Triton formulation", "result": "≤ 0.01", "unit": "%"}, {"measurement": "blocking effectiveness", "setting": "[4]; cysteine concentrations ranging from 5 to 50 to 500 mM, separate experiments", "result": "effective at blocking"}]}
{"compound": "ABCC1 rs212090 (DNA AGGCCATCTCCTTAATATTTACCC; listed as DNA, chemistry not given here)", "values": [{"measurement": "% Mutant", "setting": "[5]", "result": 48.6, "unit": "%"}, {"measurement": "% Wild-type", "setting": "[5]", "result": 51.4, "unit": "%"}, {"measurement": "Genotype", "setting": "[5]", "result": "Heterozygous (mutation percentages between 30% and 70% were classified as heterozygous (50% mutation))"}]}
{"compound": "miR-122: synthetic miR-122 miRNA, target sequence in Table 47 (UGGAGUGUGACAAUGGUGUUUG; listed as RNA, chemistry not fully specified; the letters are possibly those of the target site)", "values": [{"measurement": "concentration detected", "setting": "miR-122 [6]", "result": 160, "unit": "fM"}, {"measurement": "concentration detected", "setting": "miR-122 [7]", "result": 500, "unit": "fM"}]}
{"compound": "CHRNA3 rs1051730 (DNA CGGATGTACAGCGAGTATGTG; listed as DNA, chemistry not given here)", "values": [{"measurement": "% Mutant", "setting": "rs1051730 (CHRNA3 D398N)", "result": 0.1, "unit": "%"}, {"measurement": "% Wild-type", "setting": "rs1051730 (CHRNA3 D398N)", "result": 99.9, "unit": "%"}, {"measurement": "Genotype", "setting": "rs1051730 (CHRNA3 D398N)", "result": "Homozygous (WT) (Measured mutation percentages <20% were classified as homozygous wildtype samples)"}]}
